Two compounds from ChEMBL document CHEMBL5728714, “Aryl heterocyclic piperidinone formyl peptide 2 receptor and formyl peptide 1 receptor agonists” (2021) can be followed below.

The structures appear in SMILES notation. pEC50: −log10 of the molar value.

The assay concerns the target T1, N-formyl peptide receptor 2 (Homo sapiens, UniProt P25090).
T1 sequence (P25090 whole entry): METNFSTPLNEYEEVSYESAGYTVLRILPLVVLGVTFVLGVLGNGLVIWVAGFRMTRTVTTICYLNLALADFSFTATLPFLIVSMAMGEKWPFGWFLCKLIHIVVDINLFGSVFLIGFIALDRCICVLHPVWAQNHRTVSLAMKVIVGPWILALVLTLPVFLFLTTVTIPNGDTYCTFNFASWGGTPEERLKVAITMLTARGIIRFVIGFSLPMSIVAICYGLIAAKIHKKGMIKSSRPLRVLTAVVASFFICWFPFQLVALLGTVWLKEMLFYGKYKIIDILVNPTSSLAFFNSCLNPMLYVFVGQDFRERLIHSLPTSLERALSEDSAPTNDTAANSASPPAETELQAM
Kind of assay: FPR2 and FPR1 Cyclic Adenosine Monophosphate (cAMP) Assays: A mixture of forskolin (5 μM final for FPR2 or 10 μM final for FPR1) and IBMX (200 μM final) were added to 384-well Proxiplates (Perkin-Elmer) pre-dotted with test compounds in DMSO (1% final) at final concentrations in the range of 1.7 nM to 100 μM. Chinese Hamster Ovary cells (CHO) overexpressing human FPR1 or human FPR2 receptors were cultured in F-12 (Ham's) medium supplemented with 10% qualified FBS, 250 μg/ml zeocin and 300 μg/ml hygromycin (Life Technologies). Reactions were initiated by adding 2,000 human FPR2 cells per well or 4,000 human FPR1 cells per well in Dulbecco's PBS (with calcium and magnesium) (Life Technologies) supplemented with 0.1% BSA (Perkin-Elmer). The reaction mixtures were incubated for 30 min at room temperature. The level of intracellular cAMP was determined using the HTRF HiRange cAMP assay reagent kit (Cisbio) according to manufacturer's instruction. Solutions of cryptate conjugated anti-cAMP and d2 flurorophore-labelled cAMP were made in a supplied lysis buffer separately. Upon completion of the reaction, the cells were lysed with equal volume of the d2-cAMP solution and anti-cAMP solution. After a 1-h room temperature incubation, time-resolved fluorescence intensity was measured using the Envision (Perkin-Elmer) at 400 nm excitation and dual emission at 590 nm and 665 nm. […]. The class given is cell-based. (In general: In TR-FRET formats the signal depends on donor and acceptor labels being close together.)

Take `O=C(Nc1cnc(Cl)cn1)N[C@@H]1CCCN(c2ccc(C3(CN4CCOCC4)CC3)cc2)C1=O`: the pEC50 was above 8.00.
The value for `O=C(Nc1ccc(C(F)(F)F)cc1)N[C@@H]1CCCN(c2ccc(C3CCOCC3)cc2)C1=O` was above 8.00.

As a reminder, the pEC50 is the negative decadic logarithm of the EC50, by convention in mol/L.
